According to ChEMBL document CHEMBL3217550, “Synthesis and synergistic antimycobacterial screening of chlorpromazine and its metabolites” (2014):
In brackets after ≈: the same amount, converted by molar mass.

Tests used:
Type in all cases: functional
[1] = tested on: Mycolicibacterium smegmatis; test: Antimycobacterial against Mycobacterium smegmatis
[2] = tested on: Mycolicibacterium smegmatis; test: Antimycobacterial against Mycobacterium smegmatis in presence of 25-desacetylrifampicin
[3] = tested on: Mycolicibacterium smegmatis; test: Antimycobacterial against Mycobacterium smegmatis in presence of rifampicin
[4] = tested on: Mycolicibacterium smegmatis; test: Antimycobacterial against Mycobacterium smegmatis in presence of kanamycin
[5] = tested on: Mycolicibacterium smegmatis; test: Antimycobacterial against Mycobacterium smegmatis in presence of spectinomycin
[6] = tested on: Mycolicibacterium smegmatis; test: Antimycobacterial against Mycobacterium smegmatis in presence of streptomycin
[7] = tested on: Mycolicibacterium smegmatis; test: Antimycobacterial against Mycobacterium smegmatis in presence of chlorpromazine
[8] = tested on: Mycolicibacterium smegmatis; test: Antimycobacterial against Mycobacterium smegmatis in presence of ciprofloxacin
[9] = tested on: Mycolicibacterium smegmatis; test: Antimycobacterial against Mycobacterium smegmatis in presence of TMC207

Compound: CNCCCN1c2ccccc2[S+]([O-])c2ccc(Cl)cc21 (configuration not stated)
- MIC99 [1]: > 2080 µM

Compound: C[N+](C)([O-])CCCN1c2ccccc2Sc2ccc(Cl)cc21
- MIC99 [1]: 995 µM (≈ 333 µg/mL)
- fractional inhibitory concentration index (FICI) [2]: 0.75
- fractional inhibitory concentration index (FICI) [3]: 1
- fractional inhibitory concentration index (FICI) [4]: 1
- fractional inhibitory concentration index (FICI) [5]: 0.63
- fractional inhibitory concentration index (FICI) [6]: 0.74

Compound: C[N+](C)([O-])CCCN1c2ccccc2[S+]([O-])c2ccc(Cl)cc21 (configuration not stated)
- MIC99 [1]: > 1900 µM

Compound: CN(C)CCCN1c2ccc(O)cc2Sc2ccc(Cl)cc21 [7-HYDROXYCHLORPROMAZINE]
- MIC99 [1]: 62.2 µM (≈ 20.8 µg/mL)
- fractional inhibitory concentration index (FICI) [7]: 0.75
- fractional inhibitory concentration index (FICI) [2]: 0.75
- fractional inhibitory concentration index (FICI) [3]: 0.63
- fractional inhibitory concentration index (FICI) [4]: 0.5
- fractional inhibitory concentration index (FICI) [5]: 0.19
- fractional inhibitory concentration index (FICI) [6]: 0.79

Compound: COc1nc2ccc(Br)cc2cc1[C@@H](c1ccccc1)[C@@](O)(CCN(C)C)c1cccc2ccccc12 [BEDAQUILINE]
- MIC99 [1]: 0.05 µM (≈ 0.0278 µg/mL)

Compound: CN(C)CCCN1c2ccccc2[S+]([O-])c2ccc(Cl)cc21 (configuration not stated) [CHLOROPROMAZINE SULFOXIDE]
- MIC99 [1]: > 1990 µM

Compound: CN(C)CCCN1c2ccccc2Sc2ccc(Cl)cc21 [CHLORPROMAZINE]
- MIC99 [1]: 58.6 µM (≈ 18.7 µg/mL)
- fractional inhibitory concentration index (FICI) [2]: 0.5
- fractional inhibitory concentration index (FICI) [3]: 0.63
- fractional inhibitory concentration index (FICI) [4]: 1
- fractional inhibitory concentration index (FICI) [5]: 0.31
- fractional inhibitory concentration index (FICI) [8]: 0.73
- fractional inhibitory concentration index (FICI) [9]: 0.7
- fractional inhibitory concentration index (FICI) [6]: 0.79

Compound: O=C(O)c1cn(C2CC2)c2cc(N3CCNCC3)c(F)cc2c1=O [CIPROFLOXACIN]
- MIC99 [1]: 0.63 µM (≈ 0.209 µg/mL)

Compound: CO[C@H]1/C=C/O[C@@]2(C)Oc3c(C)c(O)c4c(O)c(c(/C=N/N5CCN(C)CC5)c(O)c4c3C2=O)NC(=O)/C(C)=C\C=C\[C@H](C)[C@H](O)[C@@H](C)[C@@H](O)[C@@H](C)[C@H](O)[C@@H]1C [DESACETYLRIFAMPIN]
- MIC99 [1]: 1.33 µM (≈ 1.04 µg/mL)
- fractional inhibitory concentration index (FICI) [3]: 0.5

Compound: CC[C@@H](CO)NCCN[C@@H](CC)CO [ETHAMBUTOL]
- MIC99 [1]: 0.76 µM (≈ 0.155 µg/mL)

Compound: NC[C@H]1O[C@H](O[C@H]2[C@H](O)[C@@H](O[C@H]3O[C@H](CO)[C@@H](O)[C@H](N)[C@H]3O)[C@H](N)C[C@@H]2N)[C@H](O)[C@@H](O)[C@@H]1O [KANAMYCIN]
- MIC99 [1]: 1.76 µM (≈ 0.853 µg/mL)

Compound: C[C@H]1COc2c(N3CCN(C)CC3)c(F)cc3c(=O)c(C(=O)O)cn1c23 [LEVOFLOXACIN]
- MIC99 [1]: 0.58 µM (≈ 0.21 µg/mL)

Compound: CCn1cc(C(=O)O)c(=O)c2ccc(C)nc21 [NALIDIXIC ACID]
- MIC99 [1]: 1440 µM (≈ 333 µg/mL)

Compound: CNCCCN1c2ccccc2Sc2ccc(Cl)cc21 [NOR1-CHLORPROMAZINE]
- MIC99 [1]: 63.3 µM (≈ 19.3 µg/mL)
- fractional inhibitory concentration index (FICI) [7]: 0.75
- fractional inhibitory concentration index (FICI) [2]: 0.5
- fractional inhibitory concentration index (FICI) [3]: 0.5
- fractional inhibitory concentration index (FICI) [4]: 0.5
- fractional inhibitory concentration index (FICI) [5]: 0.31
- fractional inhibitory concentration index (FICI) [6]: 0.49

Compound: CO[C@H]1/C=C/O[C@@]2(C)Oc3c(C)c(O)c4c(O)c(c(/C=N/N5CCN(C)CC5)c(O)c4c3C2=O)NC(=O)/C(C)=C\C=C\[C@H](C)[C@H](O)[C@@H](C)[C@@H](O)[C@@H](C)[C@H](OC(C)=O)[C@@H]1C [RIFAMPIN]
- MIC99 [1]: 1.26 µM (≈ 1.04 µg/mL)

Compound: CN[C@@H]1[C@H](O)[C@H](NC)[C@H]2O[C@@]3(O)C(=O)C[C@@H](C)O[C@H]3O[C@@H]2[C@H]1O [SPECTINOMYCIN]
- MIC99 [1]: 84.1 µM (≈ 28 µg/mL)

Compound: CN[C@@H]1[C@H](O[C@H]2[C@H](O[C@H]3[C@H](O)[C@@H](O)[C@H](N=C(N)N)[C@@H](O)[C@@H]3N=C(N)N)O[C@@H](C)[C@]2(O)C=O)O[C@@H](CO)[C@H](O)[C@H]1O [STREPTOMYCIN]
- MIC99 [1]: 0.07 µM (≈ 0.0407 µg/mL)
